Measurements taken from patent US4402961A, “Derivatives of 1-(2-,3- or 4-quinolyl)-2- or -3-(2- or 3-piperidyl or -pyrrolidinyl) ethanone or propanone, and their utilization as antiarrhythmics, anticonvulsivants and for the treatment of anxiety” (Pharmindustrie, priority 1980, dated 1983).

What follows are compounds tested against Cerebral Binding Sites of the Benzodiazepines (assay: not given). Conditions: not given.

| SMILES | Ki [nM] |
| --- | --- |
| c1ccc(-c2cc(CCCC3CCCCN3)c3ccccc3n2)cc1 (stereo not drawn) [Example 30, 4-[3-(2-piperidyl)-propyl]-2-phenyl-quinoline] | 2700 |
| COc1ccc2nccc(CCCC3CCCNC3)c2c1 (stereo not drawn) [Example 11, 6-methoxy-4-[3-(3-piperidyl)-propyl]-quinoline] | 5500 |
| Clc1ccc(-c2cc(CCC3CCCNC3)c3ccccc3n2)cc1 (stereo not drawn) [Example 20, 2-(4-chloro-phenyl)-4-[2-(3-piperidyl)-ethyl]-quinoline] | 1600 |
| c1ccc(-c2cc(CCC3CCNC3)c3ccccc3n2)cc1 (stereo not drawn) [Example 29, 2-phenyl-4-[2-(3-pyrrolidinyl)-ethyl]-quinoline] | 700 |
| O=C(CCC1CCCNC1)c1cc(-c2ccccc2)nc2ccccc12 (stereo not drawn) [Example 4, 1-[4-(2-phenyl)quinolyl]-3-(3-piperidyl)-1-propanone] | 800 |
| c1ccc(-c2cc(CCC3CCCNC3)c3ccccc3n2)cc1 (stereo not drawn) [Example 13, 2-phenyl-4-[2-(3-piperidyl)-ethyl]-quinoline] | 100 |
| c1ccc(-c2cc(CCCC3CCCNC3)c3ccccc3n2)cc1 (stereo not drawn) [Example 14, 2-phenyl-4-[3-(3-piperidyl)-propyl]-quinoline] | 1000 |
| CN1CCCC(CCCc2cc(-c3ccccc3)nc3ccccc23)C1 (stereo not drawn) [Example 24, 4-{3-[3-(1-methyl)piperidyl]-propyl}-2-phenyl-quinoline] | 3000 |
| CN1CCCC(CCc2cc(-c3ccccc3)nc3ccccc23)C1 (stereo not drawn) [Example 23, 4-{2-[3-(1-methyl)piperidyl]-ethyl}-2-phenyl-quinoline] | 900 |
| c1ccc(-c2cc(CCC3CCCCN3)c3ccccc3n2)cc1 (stereo not drawn) [Example 22, 2-phenyl-4-[2-(2-piperidyl)-ethyl]-quinoline] | 600 |
| COc1ccc2nccc(C(=O)CCC3CCCNC3)c2c1 (stereo not drawn) [Example 1, 1-[4-(6-methoxy)quinolyl]-3-(3-piperidyl)-1-propanone] | 2000 |

The compounds below were run on ventricular arrhythmias caused by the aconitine (assay: aconitine test on the rat (antiarrhythmic activity)). Conditions: iv, read-out: ED50, dose which increases by 50% the time of perfusion of the aconitine versus control animals.
Assay type: in vivo
Method: The principle of the method rests on the time of induction of the ventricular arrhythmias caused by the aconitine which is slowly perfused in rats. An antiarrhythmic substance retards the appearance of the arrhythmias and the delay is proportional to the activity of the molecule.
Groups of 5 male rats are used. An individual annesthesia is realized (10% urethane: 1 g/kg/ip) in order to permit a catheterization of the vein of the penis. The electrocardiogram is recorded. At time T=O the substance studied is injected in the form of an aqueous solution, at the rate of 2.5 ml of solution per kg in 30 seconds. At time T=90 seconds, say 1 minute after the end of the injection, the aconitine is perfused at the rate of 20 μg per minute, until the appearance of extra […] systoles. The time of perfusion of the aconitine is noted.
The results are expressed by ED50, which is the dose of product in mg/kg which increases by 50% the time of perfusion of the aconitine in comparison with the perfusion time of aconitine for the control animals.

| SMILES | ED50 [mg/kg] |
| --- | --- |
| COc1ccc2nccc(CCCC3CCCNC3)c2c1 (stereo not drawn) [Example 11, 6-methoxy-4-[3-(3-piperidyl)-propyl]-quinoline] | 7.8 |
| O=C(CC1CCCNC1)c1cc(-c2ccccc2)nc2ccccc12 (stereo not drawn) [Example 3, 1-[4-(2-phenyl)quinolyl]-2-(3-piperidyl)-ethanone] | 2.8 |
| c1ccc(-c2cc(CCCC3CCCNC3)c3ccccc3n2)cc1 (stereo not drawn) [Example 14, 2-phenyl-4-[3-(3-piperidyl)-propyl]-quinoline] | 2.2 |

These compounds were tested against Cerebral Binding Sites of the Benzodiazepines (assay: displacement of tritiated Diazepam (3H Diazepam) from cerebral benzodiazepine binding sites (method of Mohler and Coll.)). Conditions: read-out: KD, constant of affinity of 3H Diazepam; constant used in the Ki formula.

| SMILES | Kd [nM] |
| --- | --- |
| CN1C(=O)CN=C(c2ccccc2)c2cc(Cl)ccc21 [^3 H Diazepam] | 2740 |
